According to patent US11180462B2, “Microbiocidal oxadiazole derivatives” (SYNGENTA PARTICIPATIONS AG, priority 2015, dated 2021):

Assays:
[1] = tested on: Glomerella lagenarium (Colletotrichum lagenarium); assay: Fungicidal activity against Glomerella lagenarium (Colletotrichum lagenarium) liquid culture / cucumber / preventative (anthracnose); format: cell-based; details: Colletotrichum orbiculare; 20 ppm in the applied formulation; liquid culture (PDB), growth inhibition measured photometrically after 3 to 4 days; compared to untreated control; read-out: disease control
Method in brief: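 Photometric read-out of fungal growth after 2–7 days, expressed as percent antifungal activity versus untreated check. Cryo-stored conidia in PDB; compound at 20 ppm; dark, 24 °C, 96% RH.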

Phakopsora Pachyrhizi = assay: Fungicidal activity against Phakopsora pachyrhizi / soybean / leaf disc preventative (Asian soybean rust); format: in vivo; details: foliar, 200 ppm in the applied formulation, soybean leaf disks, compared to untreated control leaf disks, read-out: disease control
Method in brief: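 Preventative soybean leaf-disc test: discs on water agar sprayed with diluted formulated compound, inoculated one day later with spores on the lower surface. Held 24–36 h dark at 20°C, 75% rh, then 12 h light/day; percent disease control versus untreated discs scored 12–14 days after application.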

[2] = tested on: Puccinia recondita f. Sp. Tritici; assay: Fungicidal activity against Puccinia recondita f. sp. tritici / wheat / leaf disc preventative (brown rust); format: in vivo; details: foliar, 200 ppm in the applied formulation, wheat leaf segments, preventative, compared to untreated control leaf disks, read-out: disease control
Method in brief: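 Preventative leaf-segment test, wheat cv. Kanzler on water agar. Spray compound at 200 ppm, inoculate with spores 1 day later; 19° C., 75% rh, 12/12 h light. Read-out: % disease control vs untreated, 7 to 9 days after application.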

[3] = tested on: Puccinia recondita f. Sp. Tritici; assay: Fungicidal activity against Puccinia recondita f. sp. tritici / wheat / leaf disc curative (brown rust); format: in vivo; details: foliar, 24 h, 200 ppm in the applied formulation, wheat leaf segments, curative (applied 1 day after inoculation), compared to untreated control leaf disks, read-out: disease control
Method in brief: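 Curative leaf-segment test: compound diluted in water applied 1 day after spore inoculation of cv. Kanzler wheat segments on agar. Conditions 19° C, 75% RH, 12 h/12 h light cycle. Read-out: % disease control relative to untreated check, 6 to 8 days after application.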

COCCCC(=O)N(Cc1ccc(-c2noc(C(F)(F)F)n2)cc1)OC [Compound 1.59, N,4-dimethoxy-N-[[4-(5-(trifluoromethyl)-1,2,4-oxadiazol-3-yl]phenyl]methyl]-butanamide]
≥ 80%: inhibition of growth at 20 ppm [1] | pest or weed control at 200 ppm (Phakopsora Pachyrhizi) | pest or weed control at 200 ppm [2] | pest or weed control at 200 ppm [3]

COCCCC(=O)OCCN(Cc1ccc(-c2noc(C(F)(F)F)n2)cc1)C(=O)CCCOC [Compound 1.725, 2-[4-methoxybutanoyl-[[4-[5-(trifluoromethyl)-1,2,4-oxadiazol-3-yl]phenyl]methyl]-amino]ethyl 4-methoxybutanoate]
≥ 80%: inhibition of growth at 20 ppm [1] | pest or weed control at 200 ppm (Phakopsora Pachyrhizi) | pest or weed control at 200 ppm [2] | pest or weed control at 200 ppm [3]

C#CCN(Cc1ccc(-c2noc(C(F)(F)F)n2)cc1)C(=O)C1CC1 [Compound 1.201, N-prop-2-ynyl-N-[[4-[5-(trifluoromethyl)-1,2,4-oxadiazol-3-yl]phenyl]methyl]-cyclopropane-carboxamide]
≥ 80%: inhibition of growth at 20 ppm [1] | pest or weed control at 200 ppm (Phakopsora Pachyrhizi) | pest or weed control at 200 ppm [2] | pest or weed control at 200 ppm [3]

COCCCC(=O)N(Cc1ccc(-c2noc(C(F)(F)F)n2)cc1)C(C)C [Compound 1.681, N-isopropyl-4-methoxy-N-[[4-[5-(trifluoromethyl)-1,2,4-oxadiazol-3-yl]phenyl]methyl]-butanamide]
≥ 80%: inhibition of growth at 20 ppm [1] | pest or weed control at 200 ppm (Phakopsora Pachyrhizi) | pest or weed control at 200 ppm [2] | pest or weed control at 200 ppm [3]

CC1(C)CC1C(=O)N(Cc1ccc(-c2noc(C(F)(F)F)n2)cc1)C1CC1 (centres unmarked) [Compound 1.124, N-cyclopropyl-2,2-dimethyl-N-[[4-[5-(trifluoromethyl)-1,2,4-oxadiazol-3-yl]phenyl]methyl]-cyclopropane-carboxamide]
≥ 80%: inhibition of growth at 20 ppm [1] | pest or weed control at 200 ppm (Phakopsora Pachyrhizi) | pest or weed control at 200 ppm [2] | pest or weed control at 200 ppm [3]

C=CCN(Cc1ccc(-c2noc(C(F)(F)F)n2)cc1)C(=O)C1CCCO1 (centres unmarked) [Compound 1.489, N-allyl-N-[[4-[5-(trifluoromethyl)-1,2,4-oxadiazol-3-yl]phenyl]methyl]-tetrahydrofuran-2-carboxamide]
≥ 80%: inhibition of growth at 20 ppm [1] | pest or weed control at 200 ppm (Phakopsora Pachyrhizi) | pest or weed control at 200 ppm [2] | pest or weed control at 200 ppm [3]

CON(Cc1ccc(-c2noc(C(F)(F)F)n2)cc1)C(=O)C1(C)COC1 [Compound 1.50, N-methoxy-3-methyl-N-[[4-[5-(trifluoromethyl)-1,2,4-oxadiazol-3-yl]phenyl]methyl]-oxetane-3-carboxamide]
≥ 80%: inhibition of growth at 20 ppm [1] | pest or weed control at 200 ppm (Phakopsora Pachyrhizi) | pest or weed control at 200 ppm [2] | pest or weed control at 200 ppm [3]

CCNC(=O)N(Cc1ccc(-c2noc(C(F)(F)F)n2)cc1)C1CC1 [Compound 3.34, 1-cyclopropyl-3-ethyl-1-[[4-[5-(trifluoromethyl)-1,2,4-oxadiazol-3-yl]phenyl]methyl]urea]
≥ 80%: inhibition of growth at 20 ppm [1] | pest or weed control at 200 ppm (Phakopsora Pachyrhizi) | pest or weed control at 200 ppm [2] | pest or weed control at 200 ppm [3]

CCC(C)C(=O)N(CC)Cc1ccc(-c2noc(C(F)(F)F)n2)cc1 (centres unmarked) [Compound 1.506, N-ethyl-2-methyl-N-[[4-[5-(trifluoromethyl)-1,2,4-oxadiazol-3-yl]phenyl]methyl]-butanamide]
≥ 80%: inhibition of growth at 20 ppm [1] | pest or weed control at 200 ppm (Phakopsora Pachyrhizi) | pest or weed control at 200 ppm [2] | pest or weed control at 200 ppm [3]

CON(Cc1ccc(-c2noc(C(F)(F)F)n2)cc1)C(=O)CC1CCCC1 [Compound 1.8, 2-cyclopentyl-N-methoxy-N-[[4-[5-(trifluoromethyl)-1,2,4-oxadiazol-3-yl]phenyl]methyl]-acetamide]
≥ 80%: inhibition of growth at 20 ppm [1] | pest or weed control at 200 ppm (Phakopsora Pachyrhizi) | pest or weed control at 200 ppm [2] | pest or weed control at 200 ppm [3]

CCN(Cc1ccc(-c2noc(C(F)(F)F)n2)cc1)C(=O)CC#N [Compound 1.510, 2-cyano-N-ethyl-N-[[4-[5-(trifluoromethyl)-1,2,4-oxadiazol-3-yl]phenyl]methyl]-acetamide]
≥ 80%: inhibition of growth at 20 ppm [1] | pest or weed control at 200 ppm (Phakopsora Pachyrhizi) | pest or weed control at 200 ppm [2] | pest or weed control at 200 ppm [3]

CCC(=O)N(Cc1c(F)cc(-c2noc(C(F)(F)F)n2)cc1F)OC [Compound 1.594, N-[[2,6-difluoro-4-[5-(trifluoromethyl)-1,2,4-oxadiazol-3-yl]phenyl]methyl]-N-methoxy-propanamide]
≥ 80%: inhibition of growth at 20 ppm [1] | pest or weed control at 200 ppm (Phakopsora Pachyrhizi) | pest or weed control at 200 ppm [2] | pest or weed control at 200 ppm [3]

CC(C)C(=O)N(Cc1ccc(-c2noc(C(F)(F)F)n2)cc1)CC1CCCO1 (centres unmarked) [Compound 1.412, 2-methyl-N-(tetrahydrofuran-2-ylmethyl)-N-[[4-[5-(trifluoromethyl)-1,2,4-oxadiazol-3-yl]phenyl]methyl]-propanamide]
≥ 80%: inhibition of growth at 20 ppm [1] | pest or weed control at 200 ppm (Phakopsora Pachyrhizi) | pest or weed control at 200 ppm [2] | pest or weed control at 200 ppm [3]

COCCCC(=O)N(CCO)Cc1ccc(-c2noc(C(F)(F)F)n2)cc1 [Compound 1.724, N-(2-hydroxyethyl)-4-methoxy-N-[[4-[5-(trifluoromethyl)-1,2,4-oxadiazol-3-yl]phenyl]methyl]-butanamide]
≥ 80%: inhibition of growth at 20 ppm [1] | pest or weed control at 200 ppm (Phakopsora Pachyrhizi) | pest or weed control at 200 ppm [2] | pest or weed control at 200 ppm [3]

CON(C)C(=O)N(Cc1ccc(-c2noc(C(F)(F)F)n2)cc1)C1CC1 [Compound 3.33, 1-cyclopropyl-3-methoxy-3-methyl-1-[[4-[5-(trifluoromethyl)-1,2,4-oxadiazol-3-yl]phenyl]methyl]urea]
≥ 80%: inhibition of growth at 20 ppm [1] | pest or weed control at 200 ppm (Phakopsora Pachyrhizi) | pest or weed control at 200 ppm [2] | pest or weed control at 200 ppm [3]

CON(Cc1ccc(-c2noc(C(F)(F)F)n2)cc1)C(=O)c1ccccc1 [Compound 1.3, N-methoxy-N-[[4-[5-(trifluoromethyl)-1,2,4-oxadiazol-3-yl]phenyl]methyl]-benzamide]
≥ 80%: inhibition of growth at 20 ppm [1] | pest or weed control at 200 ppm (Phakopsora Pachyrhizi) | pest or weed control at 200 ppm [2] | pest or weed control at 200 ppm [3]

CCC(C)N(Cc1ccc(-c2noc(C(F)(F)F)n2)cc1)C(=O)CCOC (centres unmarked) [Compound 1.379, 3-methoxy-N-sec-butyl-N-[[4-[5-(trifluoromethyl)-1,2,4-oxadiazol-3-yl]phenyl]methyl]-propanamide]
≥ 80%: inhibition of growth at 20 ppm [1] | pest or weed control at 200 ppm (Phakopsora Pachyrhizi) | pest or weed control at 200 ppm [2] | pest or weed control at 200 ppm [3]

CON(Cc1ccc(-c2noc(C(F)(F)F)n2)cc1)C(=O)NCc1ccccc1 [Compound 3.15, 3-benzyl-1-methoxy-1-[[4-[5-(trifluoromethyl)-1,2,4-oxadiazol-3-yl]phenyl]methyl]urea]
≥ 80%: inhibition of growth at 20 ppm [1] | pest or weed control at 200 ppm (Phakopsora Pachyrhizi) | pest or weed control at 200 ppm [2] | pest or weed control at 200 ppm [3]

O=C(C1CCOC1)N(Cc1ccc(-c2noc(C(F)(F)F)n2)cc1)CC1CC1 (centres unmarked) [Compound 1.215, N-(cyclopropylmethyl)-N-[[4-[5-(trifluoromethyl)-1,2,4-oxadiazol-3-yl]phenyl]methyl]-tetrahydrofuran-3-carboxamide]
≥ 80%: inhibition of growth at 20 ppm [1] | pest or weed control at 200 ppm (Phakopsora Pachyrhizi) | pest or weed control at 200 ppm [2] | pest or weed control at 200 ppm [3]

CON(Cc1ccc(-c2noc(C(F)(F)F)n2)cc1)C(=O)NCc1ccco1 [Compound 3.24, 3-(2-furylmethyl)-1-methoxy-1-[[4-[5-(trifluoromethyl)-1,2,4-oxadiazol-3-yl]phenyl]methyl]urea]
≥ 80%: inhibition of growth at 20 ppm [1] | pest or weed control at 200 ppm (Phakopsora Pachyrhizi) | pest or weed control at 200 ppm [2] | pest or weed control at 200 ppm [3]
